Earlier results in US20260258086A1 (priority 2021, published 2026).

Details: in vivo; cited from earlier work

CC[C@H](C)[C@@H]1NC(=O)CNC(=O)[C@@H]2Cc3c([nH]c4cc(O)ccc34)[S@+]([O-])CC(NC(=O)CNC1=O)C(=O)N[C@@H](CC(N)=O)C(=O)N1C[C@H](O)C[C@H]1C(=O)N[C@@H]([C@@H](C)[C@@H](O)CO)C(=O)N2 [α-amanitin]
toxicity: 0.05 to 0.1 mg/kg
